Experimental data: the supplement of paper PMC10307832

Columns and labels:
Assay in all cases: relative viability (nuclei count vs DMSO), 5 days (fraction); higher = more cells survive
Vemurafenib + Foretinib = compound: CCCS(=O)(=O)Nc1ccc(F)c(C(=O)c2c[nH]c3ncc(-c4ccc(Cl)cc4)cc23)c1F [Vemurafenib] + COc1cc2c(Oc3ccc(NC(=O)C4(C(=O)Nc5ccc(F)cc5)CC4)cc3F)ccnc2cc1OCCCN1CCOCC1 [Foretinib] (partner 0.25 µM)
Method in brief: (§1)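 The day after seeding in 1536-well plates, lung cancer cell lines were treated by pin tool with a single drug, or with a fixed anchor-drug dose together with five library-drug doses (not always all listed) in √10 steps. After 5 days, a combined fix-and-stain solution (final 0.05% Triton X-100, 1% formaldehyde, 1 ug/ml Hoechst) was added. Nuclei counted on 4× images gave relative viability as treated counts over vehicle counts, reported as the median of duplicate plates.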

OSI-027 + Luminespib = compound: COc1cccc2cc(-c3nc([C@H]4CC[C@H](C(=O)O)CC4)n4ncnc(N)c34)[nH]c12 [OSI-027] + CCNC(=O)c1noc(-c2cc(C(C)C)c(O)cc2O)c1-c1ccc(CN2CCOCC2)cc1 [Luminespib] (partner 0.01 µM)
Method in brief: as §1

OSI-027 + Dasatinib = compound: COc1cccc2cc(-c3nc([C@H]4CC[C@H](C(=O)O)CC4)n4ncnc(N)c34)[nH]c12 [OSI-027] + Cc1nc(Nc2ncc(C(=O)Nc3c(C)cccc3Cl)s2)cc(N2CCN(CCO)CC2)n1 [Dasatinib] (partner 0.075 µM)
Method in brief: as §1

Alpelisib + Crizotinib = compound: Cc1nc(NC(=O)N2CCC[C@H]2C(N)=O)sc1-c1ccnc(C(C)(C)C(F)(F)F)c1 [Alpelisib] + C[C@@H](Oc1cc(-c2cnn(C3CCNCC3)c2)cnc1N)c1c(Cl)ccc(F)c1Cl [Crizotinib] (partner 1 µM)
Method in brief: as §1

Row | Cell Line | relative viability (Vemurafenib + Foretinib; first compound 0.03162 µM) | relative viability (Vemurafenib + Foretinib; first compound 0.1 µM) | relative viability (Vemurafenib + Foretinib; first compound 0.3162 µM) | relative viability (Vemurafenib + Foretinib; first compound 1 µM) | relative viability (OSI-027 + Luminespib; first compound 0.01 µM) | relative viability (OSI-027 + Luminespib; first compound 0.03162 µM) | relative viability (OSI-027 + Luminespib; first compound 0.1 µM) | relative viability (OSI-027 + Luminespib; first compound 0.3162 µM) | relative viability (OSI-027 + Luminespib; first compound 1 µM) | relative viability (OSI-027 + Dasatinib; first compound 0.01 µM) | relative viability (OSI-027 + Dasatinib; first compound 0.03162 µM) | relative viability (OSI-027 + Dasatinib; first compound 0.1 µM) | relative viability (OSI-027 + Dasatinib; first compound 0.3162 µM) | relative viability (OSI-027 + Dasatinib; first compound 1 µM) | relative viability (Alpelisib + Crizotinib; first compound 0.04 µM) | relative viability (Alpelisib + Crizotinib; first compound 0.1265 µM) | relative viability (Alpelisib + Crizotinib; first compound 0.4 µM) | relative viability (Alpelisib + Crizotinib; first compound 1.265 µM) | relative viability (Alpelisib + Crizotinib; first compound 4 µM)
1 | NCI-H2342 | 1.14 | 0.943 | 1.05 | 0.942 | 0.783 | 0.616 | 0.82 | 0.617 | 0.514 | 0.316 | 0.278 | 0.314 | 0.296 | 0.316 |  |  |  |  | 
2 | NCI-H520 | 0.702 | 0.763 | 0.897 | 0.626 | 0.258 | 0.37 | 0.211 | 0.168 | 0.202 | 0.254 | 0.192 | 0.143 | 0.133 | 0.129 | 0.823 | 0.75 | 0.739 | 0.463 | 0.515
3 | COR-L23 | 0.864 | 0.92 | 0.854 | 0.957 | 0.851 | 0.671 | 0.772 | 0.499 | 0.289 | 0.513 | 0.422 | 0.424 | 0.386 | 0.208 | 0.622 | 0.613 | 0.698 | 0.478 | 0.459
4 | A549 | 0.945 | 0.872 | 0.986 | 0.919 |  |  |  |  |  |  |  |  |  |  | 0.698 | 0.707 | 0.625 | 0.389 | 0.405
5 | NCI-H1792 |  |  |  |  | 0.737 | 0.268 | 0.37 | 0.422 | 0.18 | 0.664 | 0.617 | 0.818 | 0.7 | 0.211 | 1.01 | 0.884 | 0.983 | 0.886 | 0.72
6 | EBC-1 | 0.108 | 0.0915 | 0.104 | 0.11 |  |  |  |  |  |  |  |  |  |  | 0.229 | 0.177 | 0.204 | 0.199 | 0.177
7 | HCC-44 |  |  |  |  | 1.33 | 0.89 | 0.903 | 0.759 | 0.512 |  |  |  |  |  | 0.78 | 0.723 | 0.833 | 0.773 | 0.634
8 | NCI-H1395 | 1.02 | 0.976 |  | 1.01 | 0.717 | 0.556 | 0.621 | 0.546 | 0.439 | 0.385 | 0.398 | 0.373 | 0.341 | 0.343 |  |  |  |  | 
9 | NCI-H1793 | 0.789 |  | 0.709 | 0.922 | 0.162 | 0.188 | 0.168 | 0.132 | 0.168 | 0.352 | 0.391 | 0.389 | 0.279 | 0.193 |  |  |  |  | 
10 | Calu-6 | 0.841 | 0.855 | 0.885 | 0.757 |  |  |  |  |  |  |  |  |  |  | 0.772 | 0.691 | 0.911 | 0.753 | 0.559
11 | SW 900 | 1.11 | 0.693 | 0.801 | 0.924 |  | 0.153 | 0.169 | 0.171 | 0.163 |  | 0.6 | 0.641 | 0.487 | 0.288 |  |  |  |  | 
12 | HCC-78 | 0.59 | 0.476 | 0.7 | 0.552 |  |  |  |  |  | 0.329 | 0.356 | 0.3 | 0.266 | 0.325 | 0.289 | 0.294 | 0.318 | 0.234 | 0.242
